How the values were obtained:
cloned 5-HT receptors = details: read-out: Ki values at several cloned 5-HT receptors; cited from earlier work
rat SNORF33 = target: T1, rat SNORF33 (Rattus norvegicus, UniProt Q923Y9); assay: cAMP response in stable rat SNORF33/HEK293 cells; assay type: cell-based; details: data not shown
T1 construct: expressed in transfected cells
Method: The receptor-mediated stimulation or inhibition of cyclic AMP (cAMP) formation may be assayed in cells expressing the mammalian receptors. Cells are plated in 96-well plates or other vessels and preincubated in a buffer such as HEPES buffered saline (NaCl (150 mM), CaCl2 (1 mM), KCl (5 mM), glucose (10 mM)) supplemented with a phosphodiesterase inhibitor such as 5 mM theophylline, with or without protease inhibitor cocktail (For example, a typical inhibitor cocktail contains 2 μg/ml aprotinin, […] leupeptin, and 10 μg/ml phosphoramidon.) for 20 min at 37° C., in 5% CO2. Test compounds are added with or without […] forskolin and incubated for an additional 10 min at 37° C. The medium is then aspirated and the reaction stopped by the addition of 100 mM HCl or other methods. The plates are stored at 4° C. for 15 min, and the cAMP content in the stopping solution is measured by radioimmunoassay. Radioactivity may be quantified using a gamma counter equipped with data reduction software. Specific modifications may be performed to optimize the assay for the receptor or to alter the detection method of cAMP.

hSNORF33 = target: T2, hSNORF33 (Homo sapiens, UniProt Q96RJ0); assay: Electrophysiological response of Xenopus oocytes expressing hSNORF33 and CFTR; assay type: cell-based; design: expressed in transfected cells; host or cells: Xenopus laevis oocytes (mRNA injection, co-expressed CFTR); details: 100 μM tyramine; dependent on CFTR co-expression
T2 sequence (Q96RJ0 1-339): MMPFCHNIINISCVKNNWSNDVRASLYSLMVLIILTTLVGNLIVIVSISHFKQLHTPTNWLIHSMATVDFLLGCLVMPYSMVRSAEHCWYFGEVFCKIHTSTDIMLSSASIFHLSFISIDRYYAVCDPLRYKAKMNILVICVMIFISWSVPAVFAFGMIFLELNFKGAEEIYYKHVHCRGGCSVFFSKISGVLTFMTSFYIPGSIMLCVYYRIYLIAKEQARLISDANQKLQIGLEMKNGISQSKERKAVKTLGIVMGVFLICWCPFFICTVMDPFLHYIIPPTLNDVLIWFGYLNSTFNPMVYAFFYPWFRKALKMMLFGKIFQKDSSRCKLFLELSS
Method: Unless otherwise specified, oocytes were voltage clamped at a holding potential of −80 mV. During recordings, oocytes were bathed in continuously flowing (1-3 ml/min) medium containing 96 mM NaCl, 2 mM KCl, 1.8 mM CaCl2, 1 mM MgCl2, and 5 mM HEPES, pH 7.5 (ND96). […] Experiments were carried out at room temperature.

T1 sequence (Q923Y9 whole entry): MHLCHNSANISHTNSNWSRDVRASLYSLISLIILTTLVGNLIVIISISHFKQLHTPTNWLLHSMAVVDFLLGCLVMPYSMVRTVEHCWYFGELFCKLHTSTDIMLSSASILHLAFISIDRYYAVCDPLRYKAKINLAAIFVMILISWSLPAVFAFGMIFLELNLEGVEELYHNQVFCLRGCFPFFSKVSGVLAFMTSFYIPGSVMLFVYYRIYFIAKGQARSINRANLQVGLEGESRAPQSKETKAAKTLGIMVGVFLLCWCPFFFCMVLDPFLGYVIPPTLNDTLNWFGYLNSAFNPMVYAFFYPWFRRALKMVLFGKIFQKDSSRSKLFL

| SMILES | Ki (cloned 5-HT receptors) [nM] | Increase in cAMP (rat SNORF33) [fold] | Stimulation of hSNORF33 currents (hSNORF33) |
| --- | --- | --- | --- |
| NCCc1c[nH]c2ccccc12 [Tryptamine (T), Tryptamine] | 1 to 100 |  |  |
| NCCc1ccc(O)cc1 [Tyramine (TYR), Tyramine] |  | ~4 | strongly stimulated |

Source: US7517658B2, “Methods for preparing compositions using a SNORF33 receptor” (H. Lundbeck A/S, priority 1999, dated 2009)
